Test results published in patent US20230234983A1, “SQUALAMINE CRYSTALLINE POLYMORPHS” (Enterin, Inc., priority 2022, published 2023).
“Also recorded” adds a separate entry of the source.

Assays:
Type in all cases: physicochemical
[1] = Investigation under variable RH levels by DVS and XRPD
Protocol: The powder data were collected on D8 Advance diffractometer using Cu Kα1 radiation (1.54056 Å) with germanium monochromator at 30° C. using the SYCOS H-HOT hot humid chamber produced by Ansyco GmbH. The data were collected in the Bragg-Brentano geometry (locked coupled) from 8 to 35θ 2θ on the flat sample holder (without rotation) on solid state LynxEye detector with 0.018θ per step with 1 sec/step scan speed. After reaching demanded humidity the sample was relaxed for 5 minutes before measurement. The sample was optionally measured with 2 seconds per step and in the last measurement at RH 000 the relaxation time was elongated to 30 min.

[2] = Physical stability upon drying under vacuum, HT-XRPD
Protocol: (§1) The solvent equilibration experiments were incubated in the Crystal16™ parallel crystallization reactor at 5, 25 and 50° C. for 3 days. Up on completion of the ageing time, the solids were separated from the liquid phases, dried at ambient conditions and under vacuum, and analyzed by HT-XRPD. Afterwards, all solids were exposed to AAC (40° C./75% RH) for 2 days and remeasured by HT-XRPD. The liquids were analyzed by Karl Fisher to estimate the water content. The experimental details and results are reported in Table 9, Table 10 and Table 11.
(§2) Upon completion of the equilibration time, the solids were dried at ambient conditions and under vacuum (5 mbar/50° C./overnight) and analyzed by HT-XRPD. Afterwards, all solids were exposed to AAC (40° C./75% RH) for 2 days and remeasured by HT-XRPD.
Thermocycling experiments were started by preparing suspensions of Form B1 in the selected anhydrous solvents. The suspensions were subjected to a temperature profile between 50 and 5° C., followed by aging at 25° C. for 72 hours. Upon completion of the aging time, the solids were separated from the liquid phases, dried at ambient conditions and under vacuum, and measured by HT-XRPD. When solutions were recovered, those were left to evaporate at ambient conditions.

[3] = Physical stability upon exposure to AAC (40° C./75% RH) for 2 days, remeasured by HT-XRPD; conditions: for solid form conversion upon exposure to AAC: HT-XRPD
Protocol: as §1, §2
Table 11: Experimental details and results of equilibration experiments performed at 50° C. for 1 week. Upon completion of the equilibration time, the solids were dried at ambient conditions and under vacuum (5 mbar/RT/overnight) and analyzed by HT-XRPD. Afterwards, all solids were exposed to AAC (40° C./75% RH) for 2 days and remeasured by HT-XRPD.

[4] = Physical stability of Form B1 at three storage conditions (Example 10)
Protocol: Solid samples of Form B 1 was incubated at three different conditions to test physical stability: 80° C., closed vial, 24 hours; 60° C./29% RH, open vial, 48 hours; and 40° C./75% RH, open vial, 48 hours. The solids recovered after the stability studies were analyzed by HIR-XRPD, TGMS, and DSC.

[5] = sample recovered from thermocycling in ethyl acetate

For `CC(C)[C@@H](CC[C@@H](C)[C@H]1CC[C@H]2[C@@H]3[C@H](O)C[C@H]4C[C@@H](NCCCNCCCCN)CC[C@]4(C)[C@H]3CC[C@]12C)OS(=O)(=O)O.O=P(O)(O)O` [Form C, squalamine phosphate], which “behaviour on release of water at low RH levels or at high temperature” value [1] is on record?
Its value is “converting to Form A1”.

For `CC(C)[C@@H](CC[C@@H](C)[C@H]1CC[C@H]2[C@@H]3[C@H](O)C[C@H]4C[C@@H](NCCCNCCCCN)CC[C@]4(C)[C@H]3CC[C@]12C)OS(=O)(=O)O.O=P(O)(O)O` [Form A1, squalamine phosphate], which “solid form conversion in vacuum-dried solids of the hydrate screen” value ([2]; vacuum-dried, in some cases) is on record?
Its value is “converted to the mixed hydrate/solvate Form A2, or to the low-degree hydrates B1 and B2”.

Which results are given for `CC(C)[C@@H](CC[C@@H](C)[C@H]1CC[C@H]2[C@@H]3[C@H](O)C[C@H]4C[C@@H](NCCCNCCCCN)CC[C@]4(C)[C@H]3CC[C@]12C)OS(=O)(=O)O.O=P(O)(O)O` [Form E, squalamine phosphate]?
solid form conversion upon drying under vacuum ([2]; 5 mbar/50° C./overnight, solid from thermocycling in methanol): converted to Form F; also recorded: conversion to a poorly crystalline phase, classified as Form F; Physical Stability ([2]; upon drying at 50° C.): Unstable upon; solid form conversion upon exposure to AAC ([3]; listed as E): converted to Form A1

For `CC(C)[C@@H](CC[C@@H](C)[C@H]1CCC2C3C(CC[C@@]21C)[C@@]1(C)CC[C@H](NCCCNCCCCN)C[C@@H]1C[C@H]3O)OS(=O)(=O)O.O=P(O)(O)O` (stereo in doubt) [Form D, squalamine phosphate], which “physical stability upon exposure to AAC” value [3] is on record?
Its value is “physically unstable”.

What about the “solid form conversion upon exposure to AAC” value [3] of the same compound?
Its value is “converted to a mixture containing Form A1 and an unknown phase”.

With `CC(C)[C@@H](CC[C@@H](C)[C@H]1CC[C@H]2[C@@H]3[C@H](O)C[C@H]4C[C@@H](NCCCNCCCCN)CC[C@]4(C)[C@H]3CC[C@]12C)OS(=O)(=O)O.O=P(O)(O)O` [Form B1, squalamine phosphate] as the compound, how does the “RH at which the form already absorbs water, converting to Form A1” value [4] read?
The value was 29 % RH.

And the “Mass loss (%)” value ([4]; TGMS of solid recovered after 40° C./75% RH, open vial 48 h)?
The value was 8.9%.

And the “Mass loss (%)” value ([4]; TGMS of solid recovered after 60° C./29% RH, open vial 48 h)?
The value was 9.0%.

And the “Mass loss (%)” value ([4]; TGMS of solid recovered after 80° C., closed vial, 24 h)?
Its value is 1.8%.

What about the “solid form conversion upon exposure to AAC” value ([3]; listed as B1) of the same compound?
The value was “converted to Form A1”.

Which results are given for `CC(C)[C@@H](CC[C@@H](C)[C@H]1CC[C@H]2[C@@H]3[C@H](O)C[C@H]4C[C@@H](NCCCNCCCCN)CC[C@]4(C)[C@H]3CC[C@]12C)OS(=O)(=O)O.O=P(O)(O)O` [Form A2, squalamine phosphate]?
physical stability upon exposure to AAC [3]: physically unstable; solid form conversion upon exposure to AAC ([3]; listed as A2): converted to Form A1

For `CC(C)[C@@H](CC[C@@H](C)[C@H]1CC[C@H]2[C@@H]3[C@H](O)C[C@H]4C[C@@H](NCCCNCCCCN)CC[C@]4(C)[C@H]3CC[C@]12C)OS(=O)(=O)O.O=P(O)(O)O` [Form B2, squalamine phosphate], which “physical stability upon drying” value [2, 5] is on record?
The value was “not physically stable”.

And the “solid form conversion upon drying” value [2, 5]?
Its value is “converted to a mixture of Forms A1 and D”.

What about the “physical stability upon drying” value ([2]; samples recovered from 1-propanol and THE) of the same compound?
The value was “stable”.

And the “solid form conversion upon exposure to AAC” value ([3]; listed as B2)?
Its value is “converted to Form A1; also recorded: conversion to Form A1”.

With `CC(C)[C@@H](CC[C@@H](C)[C@H]1CC[C@H]2[C@@H]3[C@H](O)C[C@H]4C[C@@H](NCCCNCCCCN)CC[C@]4(C)[C@H]3CC[C@]12C)OS(=O)(=O)O.O=P(O)(O)O` [Form F, squalamine phosphate] as the compound, how does the “solid form conversion upon exposure to AAC” value ([3]; listed as F) read?
The value was “converted to Form A1”.
